Reference: ChEMBL document CHEMBL1125556, “Fluoroquinolones: relationships between structural variations, mammalian cell cytotoxicity, and antimicrobial activity” (J Med Chem, 1992)
In brackets after ≈: the same amount, converted by molar mass.

Columns and labels:
[1] = test system: V79; assay: Mammalian cell cytotoxicity test in chinese hamster V79 cells (clonogenic cytotoxicity); assay type: functional, cell-based
[2] = Antibacterial activity against five Gram-negative bacteria; assay type: functional
[3] = Cricetulus griseus, V79, read-out: IC50

Row | SMILES | IC50 [1, 3] [µg/mL] | MIC ([2]; read-out: MIC) [µg/mL] | MIC [2] [µg/mL] | IC50 ([1]; v79) [µg/mL]
1 | O=C(O)c1cn(C2CC2)c2c(C(F)(F)F)c(N3CCNCC3)c(F)cc2c1=O | 1650 (≈ 4130 µM) | 0.15 (≈ 0.376 µM) | – | –
2 | NC1CCN(c2c(F)cc3c(=O)c(C(=O)O)cn(C4CC4)c3c2C(F)(F)F)CC1 | 20 (≈ 48.4 µM) | 0.26 (≈ 0.629 µM) | – | –
3 | NC1CCCN(c2c(F)cc3c(=O)c(C(=O)O)cn(C4CC4)c3c2C(F)(F)F)C1 (centres undefined) | > 500 | 0.52 (≈ 1.26 µM) | – | –
4 | CC1(CN)CCN(c2c(F)cc3c(=O)c(C(=O)O)cn(C4CC4)c3c2Cl)C1 (centres undefined) | 8 (≈ 20.3 µM) | 0.07 (≈ 0.178 µM) | – | –
5 | NC1CCN(c2c(F)cc3c(=O)c(C(=O)O)cn(-c4ccc(F)cc4F)c3c2C(F)(F)F)C1 (centres undefined) | 99 (≈ 210 µM) | 0.52 (≈ 1.1 µM) | – | –
6 | CNCC1(C)CCN(c2c(F)cc3c(=O)c(C(=O)O)cn(C4CC4)c3c2OC)C1 (centres undefined) | 120 (≈ 297 µM) | 0.52 (≈ 1.29 µM) | – | –
7 | COc1c(N2CCC(N)C2)c(F)cc2c(=O)c(C(=O)O)cn(-c3ccc(F)cc3F)c12 (centres undefined) | 290 (≈ 669 µM) | 0.35 (≈ 0.808 µM) | – | –
8 | O=C(O)c1cn(C2CC2)c2c(Cl)c(N3CCCC3)c(F)cc2c1=O | 150 (≈ 428 µM) | 0.1 (≈ 0.285 µM) | – | –
9 | NC1CCN(c2c(F)cc3c(=O)c(C(=O)O)cn(C4CC4)c3c2Cl)CC1 | 18 (≈ 47.4 µM) | 0.08 (≈ 0.211 µM) | – | –
10 | CNCC1(C)CCN(c2c(F)cc3c(=O)c(C(=O)O)cn(C4CC4)c3c2C(F)(F)F)C1 (centres undefined) | 230 (≈ 521 µM) | > 30 | – | –
11 | O=C(O)c1cn(C2CC2)c2cc(N3CCCC3)c(F)cc2c1=O | 38 (≈ 120 µM) | 0.2 (≈ 0.632 µM) | – | –
12 | NC1CCN(c2c(F)c(F)c3c(=O)c(C(=O)O)cn(C4CC4)c3c2F)C1 (centres undefined) | 100 (≈ 272 µM) | 0.08 (≈ 0.218 µM) | – | –
13 | CCNCC1CCN(c2c(F)cc3c(=O)c(C(=O)O)cn(-c4ccc(F)cc4F)c3c2Cl)C1 (centres undefined) | 130 (≈ 271 µM) | 1.05 (≈ 2.19 µM) | – | –
14 | CNCC1(C)CCN(c2c(F)cc3c(=O)c(C(=O)O)cn(C4CC4)c3c2F)C1 (centres undefined) | 8 (≈ 20.4 µM) | 0.23 (≈ 0.588 µM) | – | –
15 | CCNCC1CCN(c2c(F)c(Cl)c3c(=O)c(C(=O)O)cn(C4CC4)c3c2Cl)C1 (centres undefined) | 270 (≈ 610 µM) | 0.6 (≈ 1.36 µM) | – | –
16 | COc1c(N2CCC(C)(N)C2)c(F)cc2c(=O)c(C(=O)O)cn(C3CC3)c12 (centres undefined) | 38 (≈ 101 µM) | 0.26 (≈ 0.693 µM) | – | –
17 | CC1(N)CCN(c2c(F)cc3c(=O)c(C(=O)O)cn(-c4ccc(F)cc4F)c3c2C(F)(F)F)C1 (centres undefined) | 18 (≈ 37.1 µM) | 2.07 (≈ 4.26 µM) | – | –
18 | CCNCC1CCN(c2cc3c(c(C)c2F)c(=O)c(C(=O)O)cn3C2CC2)C1 (centres undefined) | 42 (≈ 108 µM) | 0.6 (≈ 1.55 µM) | – | –
19 | NCC1CCN(c2c(F)cc3c(=O)c(C(=O)O)cn(C4CC4)c3c2F)C1 (centres undefined) | 11 (≈ 30.3 µM) | 0.05 (≈ 0.138 µM) | – | –

Row | SMILES | IC50 [1, 3] [µg/mL] | MIC ([2]; read-out: MIC) [µg/mL] | MIC [2] [µg/mL] | IC50 ([1]; v79) [µg/mL]
20 | COc1c(N2CCNCC2)c(F)cc2c(=O)c(C(=O)O)cn(C3CC3)c12 | 82 (≈ 227 µM) | 0.07 (≈ 0.194 µM) | – | –
21 | COc1c(N2CCCC(N)C2)c(F)cc2c(=O)c(C(=O)O)cn(C3CC3)c12 (centres undefined) | 69 (≈ 184 µM) | 0.23 (≈ 0.613 µM) | – | –
22 | Nc1c(F)c(N2CCC(N)C2)c(F)c2c1c(=O)c(C(=O)O)cn2C1CC1 (centres undefined) | 15 (≈ 41.2 µM) | 0.01 (≈ 0.0274 µM) | – | –
23 | CC1CN(c2cc3c(cc2F)c(=O)c(C(=O)O)cn3C2CC2)CC(C)N1 (centres undefined) | > 500 | 0.08 (≈ 0.223 µM) | – | –
24 | COc1c(N2CC(C)NC(C)C2)c(F)cc2c(=O)c(C(=O)O)cn(C3CC3)c12 (centres undefined) | > 500 | 0.34 (≈ 0.873 µM) | – | –
25 | COc1c(N2CCC(CN)C2)c(F)cc2c(=O)c(C(=O)O)cn(C3CC3)c12 (centres undefined) | 10 (≈ 26.6 µM) | 0.11 (≈ 0.293 µM) | – | –
26 | O=C(O)c1cn(C2CC2)c2c(F)c(N3CCNCC3)c(F)cc2c1=O | 47 (≈ 135 µM) | 0.07 (≈ 0.2 µM) | – | –
27 | NC1CCN(c2c(F)c(O)c3c(=O)c(C(=O)O)cn(C4CC4)c3c2F)C1 (centres undefined) | 43 (≈ 118 µM) | 0.03 (≈ 0.0821 µM) | – | –
28 | CCNCC1CCN(c2c(F)c(C)c3c(=O)c(C(=O)O)cn(C4CC4)c3c2F)C1 (centres undefined) | 9 (≈ 22.2 µM) | 0.28 (≈ 0.691 µM) | – | –
29 | CCNCC1CCN(c2c(F)cc3c(=O)c(C(=O)O)cn(CC(F)(F)F)c3c2F)C1 (centres undefined) | 58 (≈ 134 µM) | 1.82 (≈ 4.2 µM) | – | –
30 | CC1(CN)CCN(c2nc3c(cc2F)c(=O)c(C(=O)O)cn3C2CC2)C1 (centres undefined) | 25 (≈ 69.4 µM) | 0.35 (≈ 0.971 µM) | – | –
31 | COc1c(N2CCC(C)(CN)C2)c(F)cc2c(=O)c(C(=O)O)cn(C3CC3)c12 (centres undefined) | 38 (≈ 97.6 µM) | 0.26 (≈ 0.668 µM) | – | –
32 | NC1CCN(c2nc3c(cc2F)c(=O)c(C(=O)O)cn3C2CC2)C1 (centres undefined) | 98 (≈ 295 µM) | 0.03 (≈ 0.0903 µM) | – | –
33 | Nc1c(F)c(N2CCC(N)C2)cc2c1c(=O)c(C(=O)O)cn2C1CC1 (centres undefined) | 54 (≈ 156 µM) | 0.04 (≈ 0.115 µM) | – | –
34 | O=C(O)c1cn(C2CC2)c2c(Cl)c(N3CCNCC3)c(F)cc2c1=O | 43 (≈ 118 µM) | 0.07 (≈ 0.191 µM) | – | –
35 | Nc1c(F)c(N2CCC(N)C2)c(Cl)c2c1c(=O)c(C(=O)O)cn2C1CC1 (centres undefined) | 59 (≈ 155 µM) | 0.08 (≈ 0.21 µM) | – | –
36 | NC1CCCN(c2cc3c(cc2F)c(=O)c(C(=O)O)cn3C2CC2)C1 (centres undefined) | > 500 | 0.91 (≈ 2.63 µM) | – | –
37 | NC1CCN(c2c(F)c(Cl)c3c(=O)c(C(=O)O)cn(C4CC4)c3c2Cl)C1 (centres undefined) | > 500 | 0.13 (≈ 0.325 µM) | – | –
38 | CCNCC1CCN(c2c(F)c(F)c3c(=O)c(C(=O)O)cn(C4CC4)c3c2F)C1 (centres undefined) | 46 (≈ 112 µM) | 0.56 (≈ 1.37 µM) | – | –

Row | SMILES | IC50 [1, 3] [µg/mL] | MIC ([2]; read-out: MIC) [µg/mL] | MIC [2] [µg/mL] | IC50 ([1]; v79) [µg/mL]
39 | Cc1c(F)c(N2CCC(N)C2)c(C(F)(F)F)c2c1c(=O)c(C(=O)O)cn2C1CC1 (centres undefined) | 290 (≈ 702 µM) | 0.91 (≈ 2.2 µM) | – | –
40 | CCNCC1CCN(c2c(F)c(NC(C)=O)c3c(=O)c(C(=O)O)cn(C4CC4)c3c2F)C1 (centres undefined) | > 500 | > 25 | – | –
41 | CCNCC1CCN(c2cc3c(cc2F)c(=O)c(C(=O)O)cn3NC)C1 (centres undefined) | > 500 | 12.5 (≈ 34.5 µM) | – | –
42 | CCNCC1CCN(c2c(F)c(NC)c3c(=O)c(C(=O)O)cn(C4CC4)c3c2F)C1 (centres undefined) | 53 (≈ 126 µM) | 0.69 (≈ 1.64 µM) | – | –
43 | NC1CCN(c2cc3c(cc2F)c(=O)c(C(=O)O)cn3C2CC2)CC1 | 230 (≈ 666 µM) | 0.26 (≈ 0.753 µM) | – | –
44 | CNCC1(C)CCN(c2nc3c(cc2F)c(=O)c(C(=O)O)cn3C2CC2)C1 (centres undefined) | 58 (≈ 155 µM) | 0.6 (≈ 1.6 µM) | – | –
45 | O=C(O)c1cn(C2CC2)c2nc(N3CCNCC3)c(F)cc2c1=O | 120 (≈ 361 µM) | 0.09 (≈ 0.271 µM) | – | –
46 | CCNCC1CCN(c2c(F)cc3c(=O)c(C(=O)O)cn(CC4CC4)c3c2F)C1 (centres undefined) | 240 (≈ 592 µM) | 4.17 (≈ 10.3 µM) | – | –
47 | CCNCC1CCN(c2c(F)cc3c(=O)c(C(=O)O)cn(NC)c3c2F)C1 (centres undefined) | > 500 | 0.26 (≈ 0.684 µM) | – | –
48 | CCNCC1CCN(c2c(F)cc3c(=O)c(C(=O)O)cn(C4CC4)c3c2F)C1 (stereo in doubt; 7) [PD-117558] | – | – | 0.09 (≈ 0.23 µM) | –
49 | CCNCC1CCN(c2cc3c(cc2F)c(=O)c(C(=O)O)cn3C2CC2)C1 (stereo in doubt; 16) | – | – | 0.46 (≈ 1.23 µM) | –
50 | CCNCC1CCN(c2c(F)cc3c(=O)c(C(=O)O)cn(C4CC4)c3c2F)C1 (stereo in doubt; 26b) [PD-117558] | – | – | – | 11 (≈ 28.1 µM)
51 | NC1CCN(c2c(F)cc3c(=O)c(C(=O)O)cn(C4CC4)c3c2Cl)C1 (stereo in doubt; 33a) [CLINAFLOXACIN] | – | – | – | 26 (≈ 71.1 µM)
52 | COc1c(N2CCC(N)C2)c(F)cc2c(=O)c(C(=O)O)cn(C3CC3)c12 (stereo in doubt; 35a) | 45 (≈ 125 µM) | – | – | –
53 | CCNCC1CCN(c2c(F)cc3c(=O)c(C(=O)O)cn(C4CC4)c3c2Cl)C1 (stereo in doubt; 37a) | < 11 | – | – | –
54 | NC1CCN(c2c(F)cc3c(=O)c(C(=O)O)cn(C4CC4)c3c2F)C1 (stereo in doubt; 43) | – | – | – | 30 (≈ 85.9 µM)
55 | CCNCC1CCN(c2cc3c(cc2F)c(=O)c(C(=O)O)cn3C2CC2)C1 (stereo in doubt; 66) | – | – | – | 160 (≈ 428 µM)
56 | CCNCC1CCN(c2c(F)cc3c(=O)c(C(=O)O)cn(C4CC4)c3c2Cl)C1 (stereo in doubt; 69) | – | – | 0.14 (≈ 0.343 µM) | –
57 | CCn1cc(C(=O)O)c(=O)c2cc(F)c(N3CCN(C)CC3)cc21 [PEFLOXACIN] | – | 0.07 (≈ 0.21 µM) | – | –
